{
  "source": "patent US5378846A",
  "about": "“1,2,3,4-tetrahydropyrrolo-[1,2-a]-pyrazine derivatives” (Russian-American Institute For New Drug Development, priority 1993, dated 1995)",
  "key": {"memory formation in rats": {"tested_on": "memory formation in rats", "test": "Passive avoidance test, step-through (memory formation, retention)", "type": "in vivo, outbred male albino rats", "procedure": "The influence of Compound 1 on memory formation was studied in a passive avoidance test, step-through paradigm (equipment of Laffaette Co., USA). The experiments were carried out on outbred male albino rats ([…]). Compound 1 and other drugs were administered intraperitoneally 45 min. before the passive avoidance training. The retention was tested 24 hours later learning (painful electroshock in the dark compartment) by the measurement of the time spent in the dark compartment for 3 min."}, "[1]": {"tested_on": "duration of immobility in mice", "test": "Behavioural despair test (forced swimming)", "type": "in vivo, outbred male mice", "conditions": "for The duration of immobility: i.p.", "procedure": "(§1) Compounds according to the present invention were checked for their influence on gross behaviour. The experiments described herein (Examples 11, 12, 13, 14, and 15) were carried out using outbred male mice weighing approximately 18-24 g. Each substance was administered intraperitoneally 45 min. before the experiment. Locomotor activity was estimated individually for each animal for 3 min. using an actometer `Era-1` (Russia).\nThe influence of compounds on behavioral despair was studied according to the model described by Porsolt et al., Arch. int. pharmacodyn.et ther., 228, 327-[…] (1977), which is incorporated herein by reference. Mice, when forced to swim in a cylinder of water without the possibility of escape, rapidly adopt a characteristic immobile posture. […] The only movements they make are those necessary to keep their heads above water."}, "[2]": {"tested_on": "locomotor activity in mice", "test": "Locomotor activity in mice (actometer)", "type": "in vivo, outbred male mice", "conditions": "for The number of movements for 3 min., horizontal activity / The number of movements for 3 min., vertical activity: i.p.", "procedure": "as §1"}, "motor behavior in mice": {"tested_on": "motor behavior in mice", "test": "Horizontal wire test (coordination of movements and myorelaxation)", "conditions": "mice", "procedure": "The influence of Compound 1 on the motor behavior was studied according to a \"rotating rod\" test and a \"horizontal wire\" test in outbred male mice (18-22 g). A rotating rod (2 cm diameter and 5 rpm speed) was used. Acquisition was defined as the ability to remain on the rotating rod for 2 min. Each animal had two trials. According to the \"horizontal wire\" test a mouse was hung on the wire (0.3 cm. diameter, wire was fixed horizontally 40 cm above the floor) by the forepaws. The ability to pull the hind legs up to the wire for 2 min. was a criterion of test performance."}, "[3]": {"conditions": "rat, 5.0 mg/kg i.p., retention 24 hours later, 3 min"}},
  "note": "“Also recorded” adds a separate entry of the source.",
  "data": [
    {"smiles": "O=C(O)CCC(=O)O.c1cc2n(c1)CCNC2", "note": "[Compound 1, 1,2,3,4-tetrahydropyrrolo-[1,2-a]-pyrazine hydrosuccinate]", "values": [
      {"measurement": "Influence on learning and memory formation, in words", "setting": "memory formation in rats; passive avoidance", "result": "able to facilitate memory trace formation; also recorded: able to facilitate the learning ability: the time spent in the dark compartment was significantly decreased"},
      {"measurement": "The time spent in dark compartment", "setting": "memory formation in rats; [3]", "result": "15.9 ± 3.4", "unit": "s"},
      {"measurement": "The time spent in light compartment", "setting": "memory formation in rats; [3]", "result": "164.1 ± 9.4", "unit": "s"},
      {"measurement": "Influence on duration of immobility, in words", "setting": "[1]; forced swimming", "result": "did not show any activity; also recorded: does not change the duration of immobility"},
      {"measurement": "The duration of immobility", "setting": "[1]; 5.0 mg/kg", "result": "117.3 ± 6.9", "unit": "s"},
      {"measurement": "The duration of immobility", "setting": "[1]; 10.0 mg/kg", "result": "110.8 ± 5.1", "unit": "s"},
      {"measurement": "Influence on spontaneous motor activity, in words", "setting": "[2]; 0.1-0.3 mg/kg i.p.", "result": "neither stimulated nor depressed the spontaneous motor activity"},
      {"measurement": "The number of movements for 3 min., horizontal activity", "setting": "[2]; 0.1 mg/kg", "result": "650.8 ± 12.5"},
      {"measurement": "The number of movements for 3 min., vertical activity", "setting": "[2]; 0.1 mg/kg", "result": "24.7 ± 2.5"},
      {"measurement": "The number of movements for 3 min., horizontal activity", "setting": "[2]; 0.3 mg/kg", "result": "657.7 ± 15.5"},
      {"measurement": "The number of movements for 3 min., vertical activity", "setting": "[2]; 0.3 mg/kg", "result": "25.2 ± 4.1"},
      {"measurement": "Disturbances according to horizontal wire test, effect in %", "setting": "motor behavior in mice; dose 5.0", "result": 0, "unit": "%"},
      {"measurement": "Disturbances according to horizontal wire test, effect in %", "setting": "motor behavior in mice; dose 10.0", "result": 0, "unit": "%"},
      {"measurement": "Disturbances according to horizontal wire test, effect in %", "setting": "motor behavior in mice; dose 20.0", "result": 0, "unit": "%"},
      {"measurement": "Disturbances according to horizontal wire test, effect in %", "setting": "motor behavior in mice; dose 40.0", "result": 0, "unit": "%"},
      {"measurement": "Disturbances according to horizontal wire test, effect in %", "setting": "motor behavior in mice; dose 80.0", "result": 0, "unit": "%"},
      {"measurement": "Disturbances according to horizontal wire test, effect in %", "setting": "motor behavior in mice; dose 250.0", "result": 0, "unit": "%"}
    ]}
  ]
}
